Holding throughout (format): in vivo
One series concerns Ixodes scapularis nymphs. Briefly: Residual activity, aged treated vials, ticks.
The test system of series [1] is ticks, fleas, formicids and termites. The experiment in a line: Persistence of biocidal activity in vials treated with 2% solutions (Example 5). Conditions: at 11 weeks. The protocol:
Samples of the compounds listed below were obtained as described in Example 1, and screened for biocidal activities against nymphal Ixodes scapularis. In this example, 2% acetone solutions (wt/vol) of the compounds were applied to inner surfaces of 2-dram friction cap vials. Vials and caps were treated then allowed to dry for a minimum of 4 hours before placing 10 nymphs in each container. These same vials were used to challenge additional nymphs and adult I. scapularis ticks and adult Xenopsylla cheopis fleas through five weeks to observe any possible residual activity.
Persistence of biocidal activity was determined for nootkatone and valencene-11,12-epoxide by using the vials as treated with the 2% solutions of Example 2. This bioassay employed groups of ticks, fleas, formicids and termites using a method similar to that described in Example 2. […] At 11 weeks, the biocidal activity began to dissipate below the 100% mortality level.

The subject of series [2] is Ixodes scapularis nymphal ticks. The experiment in a line: Tick repellency bioassay. Conditions: listed as Nootkatone (Compound 7).
The mark [3] stands for this setting: 1 h after compound applied to applicator.
The mark [4] stands for this setting: 4 h after compound applied to applicator.

We go through one compound from patent US7230033B2, “Pest control compositions and methods for their use” (United States of America as represented by the Secretary of …, priority 2000, dated 2007).

A value given as a limit tells only on which side of the number the result lay.

`C=C(C)[C@@H]1CCC2=CC(=O)C[C@@H](C)[C@]2(C)C1` [Compound 7, Nootkatone]: the “Slope, residual activity” value in the series with Ixodes scapularis nymphs (1 week after treatment) is 1.682; with Ixodes scapularis nymphs (2 weeks after treatment) it was 1.586; in the series on Ixodes scapularis nymphs (4 weeks after treatment) it was 1.609. In addition, the “LC50, residual activity” value in the series on Ixodes scapularis nymphs (4 weeks after treatment, NE = not effective) is 0.026 percent concentration, wt:vol. The compound also returned a mortality level in series [1] below 100%. In addition, the “Slope (±SEM)” value is given as 1.288 (±0.275) in series [2] (1 h) and 1.291 (±0.277) in series [2] (4 h). In addition, the RD50 in series [2] (setting [3]) is recorded as 0.186 % (wt:vol); in series [2] (setting [4]) it was 0.177 % (wt:vol). In addition, the results for the RD95 in series [2] (setting [3]) and in series [2] (setting [4]) were 3.514 % (wt:vol) and 3.319 % (wt:vol), respectively.
